Paper PMC8151276, “An Integrated Approach toward NanoBRET Tracers for Analysis of GPCR Ligand Engagement” (Molecules, 2021)

Assays:
Assay type in all cases: binding
[1] = target: T1, RXFP3 (Homo sapiens, UniProt Q9NSD7); test: NanoBRET screen HiBiT-RXFP3 in HEK293
T1 construct: purchased Promega (in-house HiBiT-GPCR construct library, NanoBRET)
T1 sequence (Q9NSD7 1-469): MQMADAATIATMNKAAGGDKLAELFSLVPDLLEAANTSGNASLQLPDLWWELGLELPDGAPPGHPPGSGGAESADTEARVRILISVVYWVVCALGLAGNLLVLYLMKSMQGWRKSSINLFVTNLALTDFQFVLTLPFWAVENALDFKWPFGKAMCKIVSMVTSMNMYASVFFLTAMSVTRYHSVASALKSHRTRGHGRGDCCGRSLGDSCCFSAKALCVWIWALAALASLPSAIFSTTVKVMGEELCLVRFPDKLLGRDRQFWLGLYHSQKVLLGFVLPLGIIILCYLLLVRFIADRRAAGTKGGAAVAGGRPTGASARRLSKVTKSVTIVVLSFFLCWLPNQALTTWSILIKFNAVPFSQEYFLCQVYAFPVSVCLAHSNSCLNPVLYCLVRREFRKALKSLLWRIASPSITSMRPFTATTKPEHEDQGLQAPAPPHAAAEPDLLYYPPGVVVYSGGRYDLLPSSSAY
Method: (§1) Each tracer candidate was screened across the entire library of HiBiT-GPCR constructs using NanoBRET as the detection modality. As depicted in Figure 4A, the specificity of interactions was evaluated through decrease in BRET due to competitive displacement of a bound tracer by excess parental compound. Each tracer was analyzed for binding to each HiBiT-GPCR fusion in the absence and in the presence of competing parental compound. Briefly, HEK293 cells were transfected with HiBiT-GPCR constructs diluted into promoterless DNA to reduce expression and maximize translocation to the cell surface. Each tracer candidate was then screened at concentrations of 1 μM and 0.1 μM across cells expressing these fusions. Cells were treated for 1.5 h with tracer either alone or in the presence of 20 μM competing parental compound (i.e., control). BRET was measured upon addition of purified LgBiT and subsequent complementation with HiBiT genetically fused to a GPCR. The specificity of interactions was assessed through a decrease in BRET signal due to competitive displacement of the bound tracer. To further gauge the robustness of these interactions, the fold response over the control (i.e., BRETtracer/BRETcontrol) was calculated. We chose a 1.5-fold response, which translates to ≥7-fold signal over noise as the minimal threshold required to score an interaction as positive. […]. Below we highlight the screening results obtained for our exemplary fluorescent tracers based on Clozapine, Amitriptyline and AZD1283.
(§2) HiBiT-GPCR DNA constructs were diluted in 10 mM Tris pH 8 to a final concentration of 0.01 μg/μL, arrayed in 96-well plates and stored at −20 °C. For transfection, HEK293 cells were suspended in Opti-MEM (without phenol red) supplemented with 2% fetal bovine serum (Seradigm) and 100 units/mL penicillin–streptomycin (Gibco) at a final concentration of 220,000 cells/mL and dispensed into white 96-well plates at 90 μL/well. Subsequent transfections and screens were carried using an Agilent Bravo Automated Liquid Handling Platform. First, the 96-well HiBiT DNA arrays were diluted 25-fold in Opti-MEM (without serum or phenol red) to a final concentration of 0.0004 μg/μL and 20 μL of the diluted DNAs were transferred into new 96-well plates. Next, promoterless carrier DNA (1 μg/μL) was diluted 25-fold (0.04 μg/μL) and then dispensed into the diluted arrays at 20 μL/well. Following brief mixing, Viafect transfection reagent (Promega) diluted 16-fold into Opti-MEM was dispensed into the plates at 40 μL/well. After mixing by pipetting, plates were incubated for 10 min on the pipetting station deck. The DNA-transfection reagent complexes were then added to plates containing cells. To facilitate the screen, 10 μL of DNA-transfection reagent complexes were added in duplicates to the top 4 and bottom 4 rows, resulting in two identical 48-well arrays per plate. Plates with transfected cells were incubated for 18–20 h at 37 °C/5% CO2. A screen of each tracer across the entire library using two different concentrations requires duplicate plates of transfected cells. Depending on the number of tracers being screened, transfections can be scaled up using the same ratios. The next day, for each tracer, four 20× screening solutions in tracer dilution buffer (Promega) were prepared: two duplicates at final concentration of 20 μM and two duplicates at a final concentration of 2 μM. A competing unmodified compound was added to one of each duplicate at a final concentration of 400 μM. The four resulting solutions were diluted 4-fold in Opti-MEM without serum or phenol red to generate 5× solutions (5 µM and 0.5 µM tracer +/− 100 μM competing compound). To screen the library, a BioTek MultiFlo FX liquid dispenser was used to dispense 22.5 µL of tracer solution to the top 4 rows and 22.5 µL tracer + competing compound solution to the 4 bottom rows. Plates were briefly mixed on an orbital shaker and incubated for 1.5 h at room temperature. […]

[2] = target: T2, CX3CR1 (Homo sapiens, UniProt P49238); test: NanoBRET screen HiBiT-CX3CR1 in HEK293
T2 construct: purchased Promega (in-house HiBiT-GPCR construct library, NanoBRET)
T2 sequence (P49238 1-355): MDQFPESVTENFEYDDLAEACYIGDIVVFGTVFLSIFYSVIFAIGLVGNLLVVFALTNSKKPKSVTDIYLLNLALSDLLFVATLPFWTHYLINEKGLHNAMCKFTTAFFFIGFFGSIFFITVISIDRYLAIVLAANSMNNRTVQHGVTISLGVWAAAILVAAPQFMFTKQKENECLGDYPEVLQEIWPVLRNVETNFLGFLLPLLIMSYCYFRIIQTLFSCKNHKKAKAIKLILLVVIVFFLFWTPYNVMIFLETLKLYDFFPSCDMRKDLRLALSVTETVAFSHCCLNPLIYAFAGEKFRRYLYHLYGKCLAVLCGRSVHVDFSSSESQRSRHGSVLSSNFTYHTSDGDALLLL
Method: as §1, §2

[3] = target: T3, CCR4 (Homo sapiens, UniProt P51679); test: NanoBRET screen HiBiT-CCR4 in HEK293
T3 construct: purchased Promega (in-house HiBiT-GPCR construct library, NanoBRET)
T3 sequence (P51679 1-360): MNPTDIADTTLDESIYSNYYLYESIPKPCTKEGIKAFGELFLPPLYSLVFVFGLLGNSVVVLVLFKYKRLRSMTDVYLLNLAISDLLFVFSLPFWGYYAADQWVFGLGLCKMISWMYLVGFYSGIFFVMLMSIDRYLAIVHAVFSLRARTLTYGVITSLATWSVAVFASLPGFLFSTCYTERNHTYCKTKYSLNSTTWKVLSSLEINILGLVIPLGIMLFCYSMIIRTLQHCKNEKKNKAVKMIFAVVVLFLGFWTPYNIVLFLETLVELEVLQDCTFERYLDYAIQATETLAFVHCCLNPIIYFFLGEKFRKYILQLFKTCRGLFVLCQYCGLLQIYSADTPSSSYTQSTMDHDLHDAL
Method: as §1, §2

[4] = tracer at 0.1μM, listed as amitriptyline-b-2-NB590
[5] = tracer at 1μM, listed as amitriptyline-b-2-NB590

With `CCOC(=O)c1cc(C#N)c(N2CCC(C(=O)NS(=O)(=O)Cc3ccccc3/C=C/C(=O)NCCNC(=O)CCc3ccc4n3[B-](F)(F)[N+]3=C(c5ccc[nH]5)C=CC3=C4)CC2)nc1C` [AZD1283-1-NB590] the “NanoBRET Fold Response” value ([1]; RXFP3, 0.1μM) was 0.94, the “NanoBRET Fold Response” value ([1]; RXFP3, 1μM) was 1.12 and the “NanoBRET Fold Response” value ([2]; CX3CR1, 0.1μM) was 1.09. For the same compound, the “NanoBRET Fold Response” value ([2]; CX3CR1, 1μM) was 1.08, the “NanoBRET Fold Response” value ([3]; CCR4, 0.1μM) was 1.09 and the “NanoBRET Fold Response” value ([3]; CCR4, 1μM) was 1.07.
For `N#CN=C(NCCCOc1cccc(CN2CCCCC2)c1)NCCNC(=O)CCOCCOCCOCCOCCNC(=O)CCc1ccc2n1[B-](F)(F)[N+]1=C(c3ccc[nH]3)C=CC1=C2` [Aminopotentidine-2-NB590], the “NanoBRET Fold Response” value ([1]; RXFP3, tracer 0.1μM) was 1.04, the “NanoBRET Fold Response” value ([1]; RXFP3, tracer 1μM) was 0.97 and the “NanoBRET Fold Response” value ([2]; CX3CR1, tracer 0.1μM) was 1.00. For the same compound, the “NanoBRET Fold Response” value ([2]; CX3CR1, tracer 1μM) was 1.05, the “NanoBRET Fold Response” value ([3]; CCR4, tracer 0.1μM) was 1.09 and the “NanoBRET Fold Response” value ([3]; CCR4, tracer 1μM) was 0.96.
For `CN(C)CCC=C1c2ccccc2CCc2ccc(C(=O)NCCNC(=O)CCOCCOCCOCCOCCNC(=O)CCc3ccc4n3[B-](F)(F)[N+]3=C(c5ccc[nH]5)C=CC3=C4)cc21` [Amitriptyline-a-2-NB590], the “NanoBRET Fold Response” value ([1]; tracer at 0.1μM) was 0.97, the “NanoBRET Fold Response” value ([1]; tracer at 1μM) was 0.99 and the “NanoBRET Fold Response” value ([2]; tracer at 0.1μM) was 1.07. For the same compound, the “NanoBRET Fold Response” value ([2]; tracer at 1μM) was 0.99, the “NanoBRET Fold Response” value ([3]; tracer at 0.1μM) was 0.92 and the “NanoBRET Fold Response” value ([3]; tracer at 1μM) was 1.01.
`CN(C)CCC=C1c2ccccc2CCc2ccc(C(=O)NCCNC(=O)CCOCCOCCOCCOCCNC(=O)CCc3ccc4n3[B-](F)(F)[N+]3=C(c5ccc[nH]5)C=CC3=C4)cc21` [Amitriptyline-b-2-NB590] was tested, and the “NanoBRET Fold Response” value [1, 4] was 0.98, the “NanoBRET Fold Response” value [1, 5] was 1.03 and the “NanoBRET Fold Response” value [2, 4] was 1.14. The “NanoBRET Fold Response” value [2, 5] was 0.86, the “NanoBRET Fold Response” value [3, 4] was 1.02 and the “NanoBRET Fold Response” value ([3]; tracer at 1μM) was 0.95.
For `CN(CCC=C1c2ccccc2CCc2ccccc21)C(=O)CCOCCOCCOCCOCCNC(=O)CCc1ccc2n1[B-](F)(F)[N+]1=C(c3ccc[nH]3)C=CC1=C2` [Amitriptyline-e-2-NB590], the “NanoBRET Fold Response” value ([2]; tracer at 1μM) was 0.99 and the “NanoBRET Fold Response” value ([3]; tracer at 1μM) was 0.97.
In the case of `COc1ccc2c(n1)c(CCNC(C)=O)cn2CCNC(=O)CCc1ccc2n1[B-](F)(F)[N+]1=C(c3ccc[nH]3)C=CC1=C2` [Azamelatonin-1-NB590], the “NanoBRET Fold Response” value ([1]; 0.1μM tracer) is reported as 1.07, the “NanoBRET Fold Response” value ([1]; 1μM tracer) is reported as 1.11 and the “NanoBRET Fold Response” value ([2]; 0.1μM tracer) is reported as 0.93. The “NanoBRET Fold Response” value ([2]; 1μM tracer) was 1.05, the “NanoBRET Fold Response” value ([3]; 0.1μM tracer) was 0.91 and the “NanoBRET Fold Response” value ([3]; 1μM tracer) was 0.81.
